Test [1] addresses T1, CaEno1 (Candida albicans, UniProt P30575).
T1 construct: gene ENO1; recombinant, 6 × His tag, expressed in E. coli BL21(DE3)
The experiment in a line: spectrophotometric enolase assay (PEP formation at […] nm) on purified enzyme; supported by DARTS. The class given is biochemical.

Test [2] concerns the target T2, hEno1 (Homo sapiens, UniProt P06733).
T2 construct: gene ENO1; recombinant hEno1, expressed and purified using the same procedure as CaEno1
The experiment in a line: spectrophotometric enolase assay (PEP formation at […] nm) on purified enzyme. It is filed as biochemical.

T1 sequence (P30575 whole entry): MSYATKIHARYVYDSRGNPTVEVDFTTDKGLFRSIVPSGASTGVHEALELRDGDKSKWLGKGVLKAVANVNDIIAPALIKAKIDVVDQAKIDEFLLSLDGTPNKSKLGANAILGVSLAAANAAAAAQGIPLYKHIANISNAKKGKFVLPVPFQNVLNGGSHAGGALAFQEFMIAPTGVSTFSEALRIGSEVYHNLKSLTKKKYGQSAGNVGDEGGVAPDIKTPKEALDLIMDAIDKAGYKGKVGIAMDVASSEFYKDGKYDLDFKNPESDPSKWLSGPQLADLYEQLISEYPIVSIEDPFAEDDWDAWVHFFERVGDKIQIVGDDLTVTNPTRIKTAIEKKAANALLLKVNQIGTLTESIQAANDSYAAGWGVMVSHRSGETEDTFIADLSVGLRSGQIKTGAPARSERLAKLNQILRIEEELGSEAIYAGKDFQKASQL
T2 sequence (P06733 2-434): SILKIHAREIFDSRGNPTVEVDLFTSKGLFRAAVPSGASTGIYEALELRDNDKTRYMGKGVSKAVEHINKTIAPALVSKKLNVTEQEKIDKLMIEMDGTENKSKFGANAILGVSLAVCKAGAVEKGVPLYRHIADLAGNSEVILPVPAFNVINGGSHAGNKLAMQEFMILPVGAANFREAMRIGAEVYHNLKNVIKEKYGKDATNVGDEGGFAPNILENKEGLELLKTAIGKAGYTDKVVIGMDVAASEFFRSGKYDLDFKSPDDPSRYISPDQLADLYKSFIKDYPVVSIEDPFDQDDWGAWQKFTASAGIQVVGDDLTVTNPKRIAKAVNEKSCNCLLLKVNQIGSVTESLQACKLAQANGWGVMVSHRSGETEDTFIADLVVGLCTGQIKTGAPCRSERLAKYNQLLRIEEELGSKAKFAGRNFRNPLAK

With `O=C(OC[C@H]1O[C@@H](OC(=O)c2cc(O)c(O)c(O)c2)[C@H](OC(=O)c2cc(O)c(O)c(O)c2)[C@@H](OC(=O)c2cc(O)c(O)c(O)c2)[C@@H]1OC(=O)c1cc(O)c(O)c(O)c1)c1cc(O)c(O)c(O)c1` [1,2,3,4,6-O-pentagalloyl-glucose], the Ki in test [1] came out at 1.1 ± 0.14 µM. For the same compound, the IC50 in test [2] came to 1.5 ± 0.27 µM.

For the origin of these results see PMC11881577, “In vitro and in vivo activity of 1,2,3,4,6-O-pentagalloyl-glucose against Candida albicans” (Antimicrobial Agents and Chemotherapy, 2025).
